These results are taken from patent US20250387369A1 (priority 2022, published 2025).

Read-outs that look alike come from different tables or passages of the source.

Common to all, as to assay type: cell-based
For assay [1], the system named is SARS-COV-2 (a prototype having D614G mutation).
The test system is the same in assay [2]. This is another data set of the same source.
Assay [3] deals with SARS-COV-2 Omicron mutant BA.1 strain.
In assay [4] the test system is SARS-COV-2 Omicron mutant BA.2 strain.

Broadly, the IC50 is the concentration that inhibits the measured activity by half. A high value points to lower potency. `CC(C)(C)OC(=O)NCCCCCCC(C)(C(=O)O)c1c[nH]c2ccccc12` (centres unmarked) [Compound #13] showed an IC50 in assay [1] of 1.1 µM.

Take `COc1cc(COc2ccc3[nH]cc(CC(=O)O)c3c2)cc(OC)c1` [Compound #35]: the IC50 in assay [1] came to 15.4 µM.

For the compound `CC(C)C(=O)OC[C@H]1O[C@@H](n2ccc(NO)nc2=O)[C@H](O)[C@@H]1O` [Molnupiravir], the IC50 in assay [2] was found to be 4.2 µM; in assay [3], 4 µM; in assay [4] it was 2800 nM.
